# Laboratory results published in patent US11654132B2, “Methods for treating COVID-19” (priority 2020, dated 2023).
# Like-named read-outs stand apart in the source and are kept apart here.
# Columns and labels:
# SARS-CoVid-2 infection = details: combined with azithromycin; cited from earlier work
# [1] = cited from earlier work; for in vivo activity: oral and/or intravenous administration, prodrug vs active form
# [2] = system: Lipopolysaccharide stimulated IL-1B production; details: ex-vivo; active metabolite; cited from earlier work
# CYP = details: cited from earlier work
# chronic HCV = details: cited from earlier work
# [3] = NASH patients; cited from earlier work
# [4] = in vivo; cited from earlier work
# [5] = in vivo; cited from earlier work; remark: listed apart in the source
# IL-1B = details: cited from earlier work
# [6] = system: CD4 T-cell pyroptotic death in HIV-infected lymphoid tissues; details: dose-dependent; cited from earlier work
# [7] = dogs at 2000 mg/kg/day; cited from earlier work
# CYP3A4 = CYP3A4 (Homo sapiens, UniProt P08684); details: recombinant enzyme system; cited from earlier work
# CYP3A4, sequence (P08684 whole entry): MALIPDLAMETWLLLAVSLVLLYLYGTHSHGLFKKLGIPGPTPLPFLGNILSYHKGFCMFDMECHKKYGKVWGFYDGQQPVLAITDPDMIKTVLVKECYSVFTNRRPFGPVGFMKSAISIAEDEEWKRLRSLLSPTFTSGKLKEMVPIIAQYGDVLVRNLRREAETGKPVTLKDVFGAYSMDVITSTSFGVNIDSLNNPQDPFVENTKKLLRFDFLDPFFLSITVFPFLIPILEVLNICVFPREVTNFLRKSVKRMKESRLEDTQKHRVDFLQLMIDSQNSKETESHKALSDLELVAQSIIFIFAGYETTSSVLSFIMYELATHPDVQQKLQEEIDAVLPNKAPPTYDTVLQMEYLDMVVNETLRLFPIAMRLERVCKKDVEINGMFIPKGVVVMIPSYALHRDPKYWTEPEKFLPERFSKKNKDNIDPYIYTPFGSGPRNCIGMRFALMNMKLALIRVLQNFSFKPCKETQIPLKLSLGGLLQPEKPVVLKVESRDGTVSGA
# IL-18 = details: cited from earlier work; for inhibition of IL-18: during the duration of the study
# [8] = in vivo
# caspase-1 = target: T1, caspase-1 (Homo sapiens, UniProt P29466); details: healthy and disease states; cited from earlier work
# T1 sequence (P29466 120-297 limits assumed): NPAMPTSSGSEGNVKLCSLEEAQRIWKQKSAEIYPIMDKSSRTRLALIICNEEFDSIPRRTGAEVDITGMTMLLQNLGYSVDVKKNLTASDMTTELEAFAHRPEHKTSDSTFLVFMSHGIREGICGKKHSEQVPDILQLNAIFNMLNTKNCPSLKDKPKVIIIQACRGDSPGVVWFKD
# T1 sequence (P29466 317-404 limits assumed): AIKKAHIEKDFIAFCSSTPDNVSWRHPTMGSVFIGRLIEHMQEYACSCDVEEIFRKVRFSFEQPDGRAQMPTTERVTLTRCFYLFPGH
# [9] = in vivo; cited from earlier work; remark: listed apart in the source
# SARS-CoV = details: in vitro; cited from earlier work
# COVID-19 = details: mild to moderate COVID-19 at high risk of progressing to severe disease; cited from earlier work
# SARS = details: 400 mg and 100 mg added to ribavirin vs historical control; cited from earlier work
# SARS-CoV-2 = details: human, in vivo; cited from earlier work
compound,measurement,setting,value
CCN(CCO)CCCC(C)Nc1ccnc2cc(Cl)ccc12 (centres unmarked) [Hydroxychloroquine],viral loads vs control patients,SARS-CoVid-2 infection,Viral loads appeared to diminish faster
CC(C)(C)C(NC(=O)c1ccc(N)c(Cl)c1)C(=O)N1CCCC1C(=O)NC(C=O)CC(=O)O (centres unmarked) [II],bioavailability,[1]; active form,poor bioavailability
same,in vivo activity,[1],less than optimal in vivo activity
same,concentration at which Lipopolysaccharide stimulated IL-1B production is 50% suppressed,[2],0.8 µg/mL
same,CYP-mediated metabolism as route of clearance,CYP; in vitro studies,not a major route of clearance
CC(C)[C@@]1(C(=O)N[C@H]2CC(=O)O[C@]2(O)CF)CC(c2nccc3ccccc23)=NO1 [Nivocasan],reason for termination of Phase IIb,chronic HCV,significant laboratory abnormalities
same,ALT levels,[3],Reductions in ALT levels in NASH
CCO[C@@H]1OC(=O)C[C@@H]1NC(=O)[C@@H]1CCCN2C(=O)CC[C@H](NC(=O)c3nccc4ccccc34)C(=O)N12 [Pralnacasan],clinical trial outcome in rheumatoid arthritis and osteoarthritis,[4],"amelioration of RA, but not"
same,reason for termination in Phase IIb in RA,[5],liver toxicity in animals (102)
CCO[C@@H]1OC(=O)C[C@@H]1NC(=O)[C@@H]1CCCN1C(=O)[C@@H](NC(=O)c1ccc(N)c(Cl)c1)C(C)(C)C [belnacasan],suppression of IL-1B,IL-1B; single oral dose of 400 mg,50%
same,suppression of IL-1B,IL-1B; single oral dose of 800 mg,80%
same,suppression of IL-1B,IL-1B; single oral dose of 1600 mg,80%
same,CD4 T-cell pyroptotic death,[6],Prevents CD4 T-cell
same,only preclinical finding on toxicity studies,[7],reduction of the heart rate
same,metabolism by CYP3A4,CYP3A4,metabolized by CYP3A4
same,inhibition of IL-18,IL-18; 900 mg TID,60%
same,inhibition of IL-18,IL-18; 1200 mg TID,60%
same,inhibition of IL-18,IL-18; 1800 mg TID,60%
same,inhibition of IL-18 over 14 days as compared to placebo,IL-18; healthy controls,gradual but marked inhibition
same,in vivo activity,[1],better in vivo activity
same,dog dose estimated as multiple of the maximum dose in this study,[8],10-25 times
same,CYP-mediated metabolism as route of clearance,CYP,not a major route of clearance
same,effect of blocking caspase-1,caspase-1,"prevent production of IL-1β, IL-18, and pyroptosis"
same,adverse effects reported in humans,[9],"mild and mainly include headache, nausea, lethargy and dizziness"
same,seizure,[9],reported in more than one patient
same,severity of adverse events (CTCAE),[9],mild and of no consequence (grade 1 and 2 by CTCAE criteria)
Cc1cccc(C)c1OCC(=O)N[C@@H](Cc1ccccc1)[C@@H](O)C[C@H](Cc1ccccc1)NC(=O)[C@H](C(C)C)N1CCCNC1=O [lopinavir],activity against SARS-CoV,SARS-CoV,in vitro inhibitory activity
bamlanivimab: monoclonal antibody for COVID-19,efficacy,COVID-19,efficacious
casirivimab: monoclonal antibody for COVID-19,efficacy,COVID-19,efficacious
imdevimab: monoclonal antibody for COVID-19,efficacy,COVID-19,efficacious
lopinavir—ritonavir,risk of adverse clinical outcomes (ARDS or death) and viral load,SARS,reduced the risk of adverse clinical outcomes
same,"clinical symptoms, mortality, viral loads vs standard of care alone",SARS-CoV-2,"no improvement in clinical symptoms, mortality, or viral loads"
